The values below come from patent US20040110821A1, “GAL3 receptor antagonists for the treatment of affective disorders” (priority 2002, published 2004).

Test [1] addresses T1, human α2B adrenergic receptor (Homo sapiens, UniProt P18089).
T1 construct: expressed in transfected cells
The test can be described thus: Binding at human α2B adrenergic receptor. The following applies: read-out: hα2B Ki. The source says: (§1) Other receptors: Cell membranes expressing human dopamine D1, D2, D4 and rat D3 receptors were purchased through BioSignal, Inc. (Montreal, Canada). Binding assays using the histamine H1 receptor; dopamine receptors; and α1A, α1B, and α2 adrenergic receptors may be carried out according to the procedures described in U.S. Pat. No. 5,780,485, the disclosure of which is hereby incorporated by reference in its entirety into this application. Binding assays using the dopamine D5 receptor may be carried out according to the procedures described in U.S. Pat. No. 5,882,855, the disclosure of which is hereby incorporated by reference in its entirety into this application. Binding assays for the human α1D adrenergic receptor may be carried out according to the procedures described in U.S. Pat. No. 6,156,518, the disclosure of which is hereby incorporated by reference in its entirety into this application.
(§2) Binding data were analyzed using nonlinear regression and statistical techniques available in the GraphPAD Prism package (San Diego, Calif.). Enzymatic assay data were derived from a standard curve of reference compound data.

For another test, the target named is T2, rat D3 receptor (Rattus norvegicus, UniProt P19020).
T2 construct: purchased BioSignal, Inc. (Montreal, Canada)
T2 sequence (P19020 whole entry): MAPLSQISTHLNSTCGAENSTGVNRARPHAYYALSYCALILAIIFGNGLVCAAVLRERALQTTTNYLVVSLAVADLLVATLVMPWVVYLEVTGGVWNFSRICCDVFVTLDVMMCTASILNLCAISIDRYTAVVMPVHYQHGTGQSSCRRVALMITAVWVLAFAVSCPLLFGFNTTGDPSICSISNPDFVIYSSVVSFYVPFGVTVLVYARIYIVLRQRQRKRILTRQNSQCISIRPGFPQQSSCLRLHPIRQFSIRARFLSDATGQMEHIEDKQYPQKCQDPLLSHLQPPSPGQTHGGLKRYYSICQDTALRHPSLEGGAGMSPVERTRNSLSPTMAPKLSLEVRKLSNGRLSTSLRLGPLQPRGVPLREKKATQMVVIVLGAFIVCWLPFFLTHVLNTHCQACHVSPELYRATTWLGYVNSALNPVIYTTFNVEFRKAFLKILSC
As to the kind of experiment: Binding at rat dopamine D3 receptor. The following applies: read-out: rD3 Ki.
Description: as §1, §2

The target in test [2] is T3, human dopamine D4 receptor (Homo sapiens, UniProt P21917).
T3 construct: purchased BioSignal, Inc. (Montreal, Canada)
The test can be described thus: Binding at human dopamine D4 receptor. The settings on record: read-out: hD4 Ki.
Description: as §1, §2

The target of test [3] is T4, human α1B adrenergic receptor (Homo sapiens, UniProt P35368).
T4 construct: expressed in transfected cells
T4 sequence (P35368 whole entry): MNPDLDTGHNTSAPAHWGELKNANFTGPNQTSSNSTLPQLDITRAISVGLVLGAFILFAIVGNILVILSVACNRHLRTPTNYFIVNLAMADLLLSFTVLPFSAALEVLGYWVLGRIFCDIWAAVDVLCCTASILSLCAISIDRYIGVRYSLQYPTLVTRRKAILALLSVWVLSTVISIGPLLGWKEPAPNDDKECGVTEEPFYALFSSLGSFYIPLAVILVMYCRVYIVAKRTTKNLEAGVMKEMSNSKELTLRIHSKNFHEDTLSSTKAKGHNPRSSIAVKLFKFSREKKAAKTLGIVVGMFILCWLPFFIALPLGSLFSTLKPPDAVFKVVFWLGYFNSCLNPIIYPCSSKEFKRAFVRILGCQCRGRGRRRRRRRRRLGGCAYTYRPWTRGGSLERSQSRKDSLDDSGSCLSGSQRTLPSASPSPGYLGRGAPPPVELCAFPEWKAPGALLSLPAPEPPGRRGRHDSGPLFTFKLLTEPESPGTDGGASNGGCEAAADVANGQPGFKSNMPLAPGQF
The test can be described thus: Binding at human α1B adrenergic receptor. The following applies: read-out: hα1B Ki.
Description: as §1, §2

In test [4] the target is T5, human dopamine D2 receptor (Homo sapiens, UniProt P14416).
T5 construct: purchased BioSignal, Inc. (Montreal, Canada)
As to the kind of experiment: Binding at human dopamine D2 receptor. The following applies: read-out: hD2 Ki.
Description: as §1, §2

Test [5] deals with T6, Monoamine Oxidase B (central) (Rattus norvegicus, UniProt P19643).
T6 construct: Rat brain was used as the enzyme source; tissue NovaScreen (Hanover, Md.) performed the assay; host or cells: rat brain
T6 sequence (P19643 whole entry): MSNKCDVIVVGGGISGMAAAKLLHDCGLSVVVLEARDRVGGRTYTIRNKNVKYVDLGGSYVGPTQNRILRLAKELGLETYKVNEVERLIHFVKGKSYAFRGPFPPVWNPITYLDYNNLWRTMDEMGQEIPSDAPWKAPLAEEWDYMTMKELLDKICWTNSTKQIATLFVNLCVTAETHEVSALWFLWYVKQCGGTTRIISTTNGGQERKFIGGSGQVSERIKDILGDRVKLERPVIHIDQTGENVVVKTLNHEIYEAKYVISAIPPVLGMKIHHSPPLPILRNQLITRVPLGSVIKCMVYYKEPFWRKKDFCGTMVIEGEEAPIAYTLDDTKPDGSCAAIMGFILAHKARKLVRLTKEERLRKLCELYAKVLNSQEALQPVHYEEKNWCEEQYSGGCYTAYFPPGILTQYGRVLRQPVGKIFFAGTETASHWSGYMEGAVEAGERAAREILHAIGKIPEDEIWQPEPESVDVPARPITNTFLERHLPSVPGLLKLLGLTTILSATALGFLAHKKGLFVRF
The test can be described thus: Central Monoamine Oxidase B Enzyme Assay. The format is biochemical. The settings on record: rat brain as enzyme source. As for the experimental part:
(§3) The methods to determine activity at monoamine oxidase enzymes (for example, central MAOA and MAOB) are described by Otsuka and Kobayashi, 1964, and were performed by NovaScreen (Hanover, Md.) with the following modifications.
Central Monoamine Oxidase B Enzyme Assay: Rat brain was used as the enzyme source. The assay was performed as described above for central MAOA, except the reference compound was RO 166491 and the subtype selective blocker was 100 nM clorgyline. Also, the substrate ([^14C]Phenylethylamine, 0.056 Ci/mmol) was added and incubated for 10 minutes.
as §2

The next test deals with T7, human 5HT4 receptor (Homo sapiens, UniProt Q13639).
T7 construct: expressed in transfected cells
As to the kind of experiment: Radioligand binding at 5-HT4 receptor. The following applies: read-out: h5HT4 Ki. As for the experimental part: Other 5-HT ReceDtors: Other serotonin receptor binding assays were performed according to published methods: rat 5HT2c receptor (Julius et al., 1988); and 5-HT6 (Monsma, et al., 1993). The binding assays using the 5-HT4 receptor were performed according to the procedures described in U.S. Pat. No. 5,766,879, the disclosure of which is hereby incorporated by reference in its entirety into this application.
as §2

The target of test [6] is T8, human dopamine D1 receptor (Homo sapiens, UniProt P21728).
T8 construct: purchased BioSignal, Inc. (Montreal, Canada)
As to the kind of experiment: Binding at human dopamine D1 receptor. The settings on record: read-out: hD1 Ki.
Description: as §1, §2

For another test, the target named is T9, 5HT transporter (Rattus norvegicus, UniProt P31652).
T9 construct: native, tissue-derived transporters; from tissue
The test can be described thus: Binding at native 5HT transporter. The settings on record: read-out: r5HT Uptk Ki. How it is done:
(§4) The methods to determine binding affinity at native transporters are described in the following publications: 5HT transporter and NE transporter (Owens et al., 1997), and DA transporter (Javitch et al, 1984).
as §2

In test [7] the target is T10, human dopamine D5 receptor (Homo sapiens, UniProt P21918).
T10 construct: expressed in transfected cells
The test can be described thus: Binding at dopamine D5 receptor. The following applies: read-out: hD5 Ki.
Description: as §1, §2

The target of test [8] is T11, human α2C adrenergic receptor (Homo sapiens, UniProt P18825).
T11 construct: expressed in transfected cells
The test can be described thus: Binding at human α2C adrenergic receptor. The following applies: read-out: hα2C Ki.
Description: as §1, §2

The target of another test is T12, DA transporter (Rattus norvegicus, UniProt P23977).
T12 construct: native, tissue-derived transporters; from tissue
T12 sequence (P23977 whole entry): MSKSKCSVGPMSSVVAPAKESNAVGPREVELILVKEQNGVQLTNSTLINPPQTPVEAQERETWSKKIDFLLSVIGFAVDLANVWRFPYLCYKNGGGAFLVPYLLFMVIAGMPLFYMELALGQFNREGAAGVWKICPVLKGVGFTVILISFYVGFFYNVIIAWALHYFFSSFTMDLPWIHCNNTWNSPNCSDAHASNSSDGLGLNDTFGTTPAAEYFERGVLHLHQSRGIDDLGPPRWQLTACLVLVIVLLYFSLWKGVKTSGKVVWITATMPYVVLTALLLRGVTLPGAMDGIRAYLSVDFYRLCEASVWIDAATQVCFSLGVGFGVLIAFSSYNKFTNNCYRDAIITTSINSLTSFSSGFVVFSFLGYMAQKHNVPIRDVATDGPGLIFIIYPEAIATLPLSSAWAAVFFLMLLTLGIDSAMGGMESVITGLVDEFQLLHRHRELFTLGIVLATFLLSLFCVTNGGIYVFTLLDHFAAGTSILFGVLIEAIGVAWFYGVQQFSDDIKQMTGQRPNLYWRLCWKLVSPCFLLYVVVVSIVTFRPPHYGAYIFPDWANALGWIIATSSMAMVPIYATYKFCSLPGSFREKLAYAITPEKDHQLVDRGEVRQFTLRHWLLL
The test can be described thus: Binding at native DA transporter. The settings on record: read-out: rDA Uptk Ki. How it is done: as §4, §2

The target of another test is T13, human 5HT1E receptor (Homo sapiens, UniProt P28566).
T13 construct: expressed in transfected cells
T13 sequence (P28566 whole entry): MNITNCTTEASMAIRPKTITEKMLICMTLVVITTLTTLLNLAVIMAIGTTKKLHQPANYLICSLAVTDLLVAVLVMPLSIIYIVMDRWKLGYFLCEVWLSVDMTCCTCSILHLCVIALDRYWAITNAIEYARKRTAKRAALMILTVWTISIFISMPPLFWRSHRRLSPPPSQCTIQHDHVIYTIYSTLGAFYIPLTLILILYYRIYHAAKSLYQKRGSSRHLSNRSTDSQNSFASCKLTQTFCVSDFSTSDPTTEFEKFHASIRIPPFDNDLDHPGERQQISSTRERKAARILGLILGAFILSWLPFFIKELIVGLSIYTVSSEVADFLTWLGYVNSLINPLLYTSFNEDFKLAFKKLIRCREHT
As to the kind of experiment: Radioligand binding at human 5HT1E receptor. The following applies: read-out: h5HT1E Ki. As for the experimental part:
(§5) Human 5HT1B, 5HT1D, 5HT1E, 5HT1F, and 5HT7 ReceDtors: The cell lysates of LM(tk-) clonal cell line stably transfected with the genes encoding each of these 5HT receptor-subtypes were prepared as described above. Cell membranes were suspended in 50 mM Tris-HCl buffer (pH 7.4 at 37° C.) containing 10 mM MgCl2, 0.2 mM EDTA, 10 µM pargyline, and 0.1% ascorbate. […] Nonspecific binding was determined in the presence of 10 μM serotonin. The bound radioligand was separated by filtration through GF/B filters using a cell harvester.
as §2

The target of test [9] is T14, human α2A adrenergic receptor (Homo sapiens, UniProt P08913).
T14 construct: expressed in transfected cells
T14 sequence (P08913 whole entry): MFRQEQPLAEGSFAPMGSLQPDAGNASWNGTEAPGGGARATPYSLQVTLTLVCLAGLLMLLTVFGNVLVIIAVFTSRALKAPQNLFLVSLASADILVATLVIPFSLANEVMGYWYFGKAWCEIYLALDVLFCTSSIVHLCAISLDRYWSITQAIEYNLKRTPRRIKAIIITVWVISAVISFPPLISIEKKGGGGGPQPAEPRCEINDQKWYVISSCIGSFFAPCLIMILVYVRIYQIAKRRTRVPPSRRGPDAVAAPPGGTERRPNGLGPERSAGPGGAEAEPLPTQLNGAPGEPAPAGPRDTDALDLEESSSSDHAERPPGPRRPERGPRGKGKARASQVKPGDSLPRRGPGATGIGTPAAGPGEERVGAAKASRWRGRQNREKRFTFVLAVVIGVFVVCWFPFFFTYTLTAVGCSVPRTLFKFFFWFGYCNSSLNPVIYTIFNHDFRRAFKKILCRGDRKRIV
The test can be described thus: Binding at human α2A adrenergic receptor. The settings on record: read-out: hα2A Ki.
Description: as §1, §2

Test [10] concerns the target T15, human α1D adrenergic receptor (Homo sapiens, UniProt P25100).
T15 construct: expressed in transfected cells
The test can be described thus: Binding at human α1D adrenergic receptor. The following applies: read-out: hα1D Ki.
Description: as §1, §2

The next test has as its target T16, human 5HT1D receptor (Homo sapiens, UniProt P28221).
T16 construct: expressed in transfected cells
The test can be described thus: Radioligand binding at human 5HT1D receptor. The settings on record: read-out: h5HT1D Ki. As for the experimental part: as §5, §2

The target in test [11] is T17, human H1 histamine receptor (Homo sapiens, UniProt P35367).
T17 construct: expressed in transfected cells
T17 sequence (P35367 whole entry): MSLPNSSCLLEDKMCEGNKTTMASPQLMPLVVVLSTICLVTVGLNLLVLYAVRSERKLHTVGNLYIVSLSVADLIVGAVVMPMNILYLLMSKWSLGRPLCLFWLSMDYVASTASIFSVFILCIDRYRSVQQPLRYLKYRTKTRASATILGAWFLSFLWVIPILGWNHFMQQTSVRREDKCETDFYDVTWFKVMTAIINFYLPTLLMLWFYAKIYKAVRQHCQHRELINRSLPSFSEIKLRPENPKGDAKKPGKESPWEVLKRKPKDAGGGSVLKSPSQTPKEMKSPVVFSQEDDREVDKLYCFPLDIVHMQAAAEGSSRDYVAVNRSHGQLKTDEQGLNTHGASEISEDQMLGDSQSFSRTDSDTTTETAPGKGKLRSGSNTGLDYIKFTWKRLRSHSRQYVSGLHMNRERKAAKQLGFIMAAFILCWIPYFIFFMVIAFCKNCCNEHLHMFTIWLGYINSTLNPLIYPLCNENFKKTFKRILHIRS
The test can be described thus: Binding at histamine H1 receptor. The following applies: read-out: hH1 Ki.
Description: as §1, §2

In test [12] the target is T18, Monoamine Oxidase A (central) (Rattus norvegicus, UniProt P21396).
T18 construct: Rat brain was used as the enzyme source; tissue NovaScreen (Hanover, Md.) performed the assay; host or cells: rat brain
T18 sequence (P21396 whole entry): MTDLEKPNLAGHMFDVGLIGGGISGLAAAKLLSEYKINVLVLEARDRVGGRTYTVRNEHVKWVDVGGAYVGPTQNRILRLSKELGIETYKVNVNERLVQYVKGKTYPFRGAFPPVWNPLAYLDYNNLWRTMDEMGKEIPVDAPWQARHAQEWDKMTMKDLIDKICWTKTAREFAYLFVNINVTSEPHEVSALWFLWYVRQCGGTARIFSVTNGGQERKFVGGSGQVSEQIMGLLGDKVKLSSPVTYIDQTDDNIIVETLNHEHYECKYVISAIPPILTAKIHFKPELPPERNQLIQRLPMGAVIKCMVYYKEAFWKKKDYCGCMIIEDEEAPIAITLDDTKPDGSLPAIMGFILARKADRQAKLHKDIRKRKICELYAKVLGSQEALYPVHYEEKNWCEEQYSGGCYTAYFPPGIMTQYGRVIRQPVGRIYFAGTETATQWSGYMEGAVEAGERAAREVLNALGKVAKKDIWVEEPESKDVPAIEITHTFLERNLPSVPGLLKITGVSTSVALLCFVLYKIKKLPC
As to the kind of experiment: Central Monoamine Oxidase A Enzyme Assay. The settings on record: rat brain as enzyme source. It counts as biochemical. As for the experimental part: as §3
Central Monoamine Oxidase A Enzyme Assay: Rat brain was used as the enzyme source. The enzyme source was pre-incubated with reference compound (RO 41-1049), test compound (Example 92), and subtype selective blocker (100 nM deprenyl) for 60 minutes at 37° C. in 50 mM KPO4 containing 50 μM EDTA and 10 μM dithiothreitol (pH 7.2 at 25° C.). Substrate ([^14C]Serotonin, […]) was then added and incubated for 30 minutes. The reaction was stopped by the addition of 0.5 ml of 1-2M citric acid. Radioactive product was extracted into xylene/ethyl acetate fluor and compared to control values by scintillation spectrophotometry in order to ascertain any interactions of test compound with central MAOA.
as §2

What is called Ki is the equilibrium dissociation constant of an inhibitor or competing ligand from its target.

T15 sequence (P25100 whole entry): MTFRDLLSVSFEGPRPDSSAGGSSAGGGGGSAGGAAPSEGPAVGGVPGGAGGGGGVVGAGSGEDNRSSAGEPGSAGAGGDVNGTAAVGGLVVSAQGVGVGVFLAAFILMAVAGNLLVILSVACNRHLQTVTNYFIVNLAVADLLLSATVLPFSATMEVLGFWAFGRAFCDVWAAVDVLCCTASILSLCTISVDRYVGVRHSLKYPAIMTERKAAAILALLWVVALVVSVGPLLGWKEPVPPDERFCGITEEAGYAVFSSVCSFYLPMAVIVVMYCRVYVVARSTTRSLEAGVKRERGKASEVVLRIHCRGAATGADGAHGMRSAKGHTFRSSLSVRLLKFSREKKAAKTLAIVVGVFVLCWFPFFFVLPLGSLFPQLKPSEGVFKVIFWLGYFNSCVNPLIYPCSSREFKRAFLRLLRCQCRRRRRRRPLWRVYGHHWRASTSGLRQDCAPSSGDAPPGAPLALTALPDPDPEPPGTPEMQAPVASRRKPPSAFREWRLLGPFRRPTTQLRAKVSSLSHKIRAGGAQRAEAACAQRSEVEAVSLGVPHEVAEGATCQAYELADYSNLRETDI
T1 sequence (P18089 whole entry): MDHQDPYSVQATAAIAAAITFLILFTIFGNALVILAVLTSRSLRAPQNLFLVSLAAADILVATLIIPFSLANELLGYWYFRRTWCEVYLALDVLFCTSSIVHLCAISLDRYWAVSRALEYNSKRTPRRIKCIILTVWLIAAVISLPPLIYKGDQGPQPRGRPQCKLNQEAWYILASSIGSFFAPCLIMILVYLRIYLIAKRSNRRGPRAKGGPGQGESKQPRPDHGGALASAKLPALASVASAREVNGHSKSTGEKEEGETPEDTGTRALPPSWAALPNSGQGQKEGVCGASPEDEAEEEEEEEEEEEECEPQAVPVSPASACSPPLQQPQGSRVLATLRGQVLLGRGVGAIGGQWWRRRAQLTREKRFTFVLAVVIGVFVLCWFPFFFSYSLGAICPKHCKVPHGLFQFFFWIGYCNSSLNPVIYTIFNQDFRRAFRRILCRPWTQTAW

`O=C1C(=Nc2cccc(C(F)(F)F)c2)c2ccccc2N1c1ccccc1` [Example 92, 1-PHENYL-3-[[3-(TRIFLUOROMETHYL)PHENYL]IMINO]-1,3-DIHYDRO-2H-INDOL-2-ONE]: the inhibitory constant (Ki) in test [1] was above 50 µM; on rat D3 receptor, 48.2 µM; in test [2] it was 41.4 µM; in test [3], above 50 µM; in test [4], 41.4 µM; at human 5HT4 receptor it was 72 nM. The inhibition constant (Ki) in test [6] was above 50 µM; at 5HT transporter, 45.1 µM; in test [7], 29.3 µM; in [8], above 50 µM; on DA transporter, 17.8 µM; at human 5HT1E receptor, 18.9 µM. In addition, the inhibition constant (Ki) turned out to be 21.9 µM in [9], 17.2 µM in test [10], 32.1 µM at human 5HT1D receptor and 39.9 µM in test [11]. The “% INHIBITION” value is reported as 1% in test [5] and 10% in test [12].
